The values below come from patent US20130296311A1, “INHIBITORS OF HCV NS5A” (PRESIDIO PHARMACEUTICALS, INC., priority 2010, published 2013).

Like-named read-outs stand apart in the source and are kept apart here.

The subject of the assay is HCV 1b_Huh-Luc/Neo-ET cell line persistently expressing a bicistronic genotype 1b replicon in Huh 7 cells. Description: HCV replicon assay (luciferase readout, 72 h). The format is cell-based, HCV genotype 1b. The following applies: Hepatitis C virus. Summed up: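 Huh 7 cells carrying a bicistronic genotype 1b luciferase/neo replicon received compound in triplicate the day after plating. After 72 h, replicon levels were read as Bright-Glo luciferase activity, expressed as % of control; EC50 was fitted with a four-parameter logistic and determined several times.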

The mark [1] stands for this setting: Huh-7, 72 h, read-out: Inhibition of HCV genotype 1b.
Setting [2] is: Huh-7, read-out: Inhibition of HCV genotype 1b.

For `COC(=O)N[C@H](C(=O)N1CCC[C@H]1c1ncc(-c2ccc(C#Cc3ccc4c(c3)CCCc3nc([C@@H]5CCCN5C(=O)[C@@H](NC(=O)OC)C(C)C)[nH]c3-4)cc2)[nH]1)C(C)C` [Compound 1096], the EC50 under setting [1] was below 1 nM. With `COC(=O)N[C@@H](C(=O)N1CCC[C@H]1c1ncc(-c2ccc(C#Cc3ccc(-c4cnc([C@@H]5CCCN5C(=O)[C@H](NC(=O)OC)[C@H](C)OC)[nH]4)cc3)cc2)[nH]1)[C@H](C)OC` [Compound 977], the EC50 under setting [1] lay in the range of 10 to 999 nM. Turning to `COC(=O)N[C@H](C(=O)N1CCC[C@H]1c1nc2c([nH]1)-c1ccc(C#Cc3ccc4nc([C@@H]5CCCN5C(=O)[C@@H](NC(=O)OC)C(C)C)[nH]c4c3)cc1CC2)C(C)C` [Compound 1101], the EC50 under setting [1] was below 1 nM. `O=C(NC[C@@H]1CCCN1C(=O)[C@H](NC(=O)C1CC1)c1ccccc1)c1ccc(C#Cc2ccc(-c3cnc([C@@H]4CCCN4C(=O)[C@H](NC(=O)C4CC4)c4ccccc4)[nH]3)cc2)cc1` [Compound 193]: the EC50 under setting [1] was below 1 nM.

As for `COC(=O)N[C@H](C(=O)N1CCC[C@H]1c1ncc(-c2ccc3cc(C#Cc4[nH]c([C@@H]5CCCN5C(=O)[C@@H](NC(=O)OC)C5CCCC5)nc4C(F)(F)F)ccc3c2)[nH]1)C1CCCC1` [Compound 1254], under setting [2], the EC50 is below 1 nM.

On to `COC(=O)N[C@@H](C(=O)N1CCC[C@H]1c1ncc(-c2ccc(C#Cc3ccc(-c4cnc([C@@H]5CCCN5C(=O)[C@H](C(C)C)N5CCOC5=O)[nH]4)cc3)cc2)[nH]1)c1ccccc1` [Compound 1005], for which the EC50 under setting [1] was below 1 nM. On the same count and under the same terms, in the case of `CC(C)(C)OC(=O)N[C@@H](C(=O)N1CCC[C@H]1c1ncc(-c2ccc(C#Cc3ccc(-c4cnc([C@@H]5CCCN5C(=O)[C@H](NC(=O)OC(C)(C)C)c5ccccc5)[nH]4)cc3)cc2)[nH]1)c1ccccc1` [Compound 246] it was below 1 nM; in that of `COC(=O)N[C@@H](C(=O)N1CCC[C@H]1c1ncc(C#Cc2ccc(C#Cc3cnc([C@@H]4CCCN4C(=O)[C@@H](c4ccccc4)N(C)C)[nH]3)cc2)[nH]1)c1ccccc1` [Compound 314], below 1 nM. Take `COC(=O)N[C@H](C(=O)N1CCC[C@H]1c1ncc(-c2ccc(C#Cc3ccc(-c4cnc([C@@H]5CCCN5C(=O)[C@H](NC(=O)N5CCC(O)CC5)c5ccccc5)[nH]4)cc3)cc2)[nH]1)C(C)C` [Compound 991]: under setting [1], the EC50 lay within 1 to 9.9 nM. In the case of `O=C(N[C@@H](C(=O)N1CCC[C@H]1c1ncc(-c2ccc(C#Cc3ccc(-c4cnc([C@@H]5CCCN5C(=O)[C@@H](c5ccccc5)N5CCCCC5)[nH]4)cc3)cc2)[nH]1)c1ccccc1)C1CC1` [Compound 208], under setting [1], the EC50 is below 1 nM. For `COC(=O)N[C@H](C(=O)N[C@@H](C)c1ncc(-c2ccc(C#Cc3ccc(-c4cnc([C@H](C)NC(=O)[C@@H](NC(=O)OC)[C@@H](C)OC)[nH]4)cc3)cc2)[nH]1)[C@@H](C)OC` [Compound 952], the EC50 under setting [1] lay within 1 to 9.9 nM. On to `C[C@@H](NC(=O)[C@@H]1CCCN1C(=O)[C@H](NC(=O)OC(C)(C)C)c1ccccc1)c1ccc(C#Cc2cnc([C@@H]3CCCN3C(=O)[C@H](NC(=O)OC(C)(C)C)c3ccccc3)[nH]2)cc1` [Compound 129], for which the EC50 under setting [1] fell in the range of 10 to 999 nM. On the same count and under the same terms, in the case of `O=C(N[C@@H](C(=O)N1CCC[C@H]1c1ncc(C#Cc2ccc(C#Cc3cnc([C@@H]4CCCN4C(=O)[C@H](NC(=O)N4CCOCC4)c4ccccc4)[nH]3)cc2)[nH]1)c1ccccc1)N1CCOCC1` [Compound 309] it was below 1 nM; in that of `O=C(N[C@@H](C(=O)N1CCC[C@H]1c1cc(-c2ccc(C#Cc3ccc(-c4cnc([C@@H]5CCCN5C(=O)[C@H](NC(=O)[C@@H]5CCCO5)c5ccccc5)[nH]4)cc3)cc2)n[nH]1)c1ccccc1)[C@@H]1CCCO1` [Compound 214], below 1 nM. As for `COC(=O)N[C@H](C(=O)N[C@@H](C)c1ncc(-c2ccc(C#Cc3ccc4nc([C@@H]5CCCN5C(=O)[C@@H](NC(=O)OC)C(C)C)[nH]c4c3)cc2)[nH]1)C(C)C` [Compound 869], the EC50 under setting [1] was below 1 nM. The same measure, in the same setting: in the case of `O=C([C@H](O)c1ccccc1)N1CCC[C@H]1c1ncc(-c2ccc(C#Cc3ccc(-c4cnc([C@@H]5CCCN5C(=O)[C@H](O)c5ccccc5)[nH]4)cc3)cc2)[nH]1` [Compound 157] it was below 1 nM; in that of `COC(=O)N[C@@H](C(=O)N1CCC[C@H]1c1ncc(-c2ccc(C#Cc3ccc(-c4cnc([C@@H]5CCCN5C(=O)[C@H](NC(=O)N5CCS(=O)(=O)CC5)c5ccccc5)[nH]4)cc3)cc2)[nH]1)c1ccccc1` [Compound 253], below 1 nM. On the same count and under the same terms, in the case of `COC(=O)N[C@H](C(=O)N1CCC[C@H]1c1nc2ccc(C#Cc3ccc(-c4cnc([C@@H]5CCCN5)[nH]4)cc3)cc2[nH]1)C(C)C` [Compound 1055] it was 10 to 999 nM; in that of `COC(=O)N[C@H](C(=O)N1CCC[C@H]1c1nc2ccc3cc(C#Cc4ccc(-c5cnc([C@@H]6CCCN6C(=O)[C@@H](NC(=O)OC)C6CCOCC6)[nH]5)cc4)ccc3c2[nH]1)C(C)C` [Compound 1092], below 1 nM. For `CC(C)(C)OC(=O)N[C@@H](C(=O)N1CCC[C@H]1c1cc(-c2ccc(C#Cc3ccc(-c4cnc([C@@H]5CCCN5C(=O)[C@H](NC(=O)OC(C)(C)C)c5ccccc5)[nH]4)cc3)cc2)n[nH]1)c1ccccc1` [Compound 210], under setting [1], the EC50 was below 1 nM. Turning to `CC(C)(C)OC(=O)N[C@@H](C(=O)N1CCC[C@H]1c1ncc(C#Cc2ccc(-c3cnc([C@@H]4CCCN4C(=O)[C@H](NC(=O)OC(C)(C)C)c4ccccc4)[nH]3)cc2)[nH]1)c1ccccc1` [Compound 99], the EC50 under setting [1] is below 1 nM. In the case of `C[C@H](NC(=O)[C@@H]1CCCN1C(=O)[C@H](NC(=O)OC(C)(C)C)c1ccccc1)c1ccc(C#Cc2ccc(-c3cnc([C@@H]4CCCN4C(=O)[C@H](NC(=O)OC(C)(C)C)c4ccccc4)[nH]3)cc2)cc1` [Compound 169], the EC50 under setting [1] lay in the range of 1 to 9.9 nM. In the case of `COC(=O)N[C@H](C(=O)N1CCC[C@H]1c1nc2ccc(C#Cc3ccc4c(ccc5nc([C@@H]6CCCN6C(=O)[C@@H](NC(=O)OC)[C@@H](C)OC)[nH]c54)c3)cc2[nH]1)C(C)C` [Compound 1286], under setting [2], the EC50 is below 1 nM. Turning to `COC[C@H](NC(=O)OC)C(=O)N1CCC[C@H]1c1ncc(-c2ccc(C#Cc3ccc(-c4cnc([C@@H]5CCCN5C(=O)[C@H](COC)NC(=O)OC)[nH]4)cc3)cc2)[nH]1` [Compound 976], the EC50 under setting [1] is below 1 nM.

Consider `COC(=O)N[C@@H](C(=O)N1CCC[C@H]1c1ncc(-c2ccc(C#Cc3ccc(-c4cnc([C@@H]5CCCN5C(=O)[C@H](NC(=O)N5CCC[C@H]5CO)c5ccccc5)[nH]4)cc3)cc2)[nH]1)c1ccccc1` [Compound 255], for which the EC50 under setting [1] is below 1 nM. In the case of `C[C@@H](c1ncc(-c2ccc(C#Cc3ccc(-c4cnc([C@@H]5CCCN5C(=O)[C@H](NC(=O)C5CC5)c5ccccc5)[nH]4)cc3)cc2)[nH]1)N(C)C(=O)[C@H](NC(=O)C1CC1)c1ccccc1` [Compound 278], the EC50 under setting [1] is below 1 nM.

Consider `COC(=O)N[C@H](C(=O)N1CCN(C(C)=O)C[C@H]1c1ncc(-c2ccc(C#Cc3ccc4nc([C@@H]5CCCN5C(=O)[C@@H](NC(=O)OC)C5CCOCC5)[nH]c4c3)cc2)[nH]1)C1CCOCC1` [Compound 1234], for which the EC50 under setting [2] lay in the range of 1 to 9.9 nM. Regarding `CN(C)C(=O)N[C@@H](C(=O)N1CCC[C@H]1c1ncc(-c2ccc(C#Cc3ccc(-c4cnc([C@@H]5CCCN5C(=O)[C@H](NC(=O)N(C)C)c5ccccc5)[nH]4)cc3)cc2)[nH]1)c1ccccc1` [Compound 161], the EC50 under setting [1] is below 1 nM. For `CC[C@H](C)[C@H](NC(=O)OC)C(=O)N1CCC[C@H]1c1nc(C)c(C#Cc2ccc3cc(-c4cnc([C@@H]5CCCN5C(=O)[C@@H](NC(=O)OC)[C@@H](C)OC)[nH]4)ccc3c2)[nH]1` [Compound 1265], the EC50 under setting [2] was below 1 nM.

`COC(=O)N[C@H](C(=O)N1CCC[C@H]1c1ncc(-c2ccc(C#Cc3ccc4nc([C@@H]5CCCN5C(=O)[C@@H](NC(=O)OC)C(C)C)[nH]c4c3)cc2)[nH]1)C(C)C` [Compound 802]: the EC50 under setting [1] is below 1 nM. The same measure, in the same setting: in the case of `C(#Cc1ccc2nc([C@@H]3CCCN3Cc3ccccc3)[nH]c2c1)c1ccc(-c2cnc([C@@H]3CCCN3Cc3ccccc3)[nH]2)cc1` [Compound 1052] it was above 1000 nM. Consider `CC[C@H](C)[C@H](NC(=O)OC)C(=O)N1CCC[C@H]1c1ncc(-c2ccc(C#Cc3ccc(-c4cnc([C@@H]5CCCN5C(=O)[C@@H](NC(=O)OC)C5CCOCC5)[nH]4)cc3)cc2)[nH]1` [Compound 1220], for which, under setting [2], the EC50 is below 1 nM. For the molecule `CC(=O)N[C@@H](C(=O)N1CCC[C@H]1c1ncc(-c2ccc(C#Cc3ccc(-c4cnc([C@@H]5CCCN5C(=O)[C@H](NC(C)=O)c5ccccc5)[nH]4)cc3)cc2)[nH]1)c1ccccc1` [Compound 158], the EC50 under setting [1] is below 1 nM.

On to `CC(C)(C)OC(=O)NCC(=O)N1CCC[C@H]1c1ncc(C#Cc2ccc(-c3cnc([C@@H]4CCCN4C(=O)CNC(=O)OC(C)(C)C)[nH]3)cc2)[nH]1` [Compound 103], for which the EC50 under setting [1] fell in the range of 10 to 999 nM. For the molecule `COC(=O)N[C@H](C(=O)N1CCC[C@H]1c1ncc(-c2ccc(C#Cc3ccc(-c4cnc([C@@H]5CCCN5C(=O)[C@@H](c5ccccc5)N5CCCC5)[nH]4)cc3)cc2)[nH]1)C(C)C` [Compound 984], the EC50 under setting [1] was below 1 nM. As for `COC(=O)N[C@H](C(=O)N[C@@H](C)c1ncc(-c2ccc(C#Cc3ccc(-c4cnc([C@@H]5CCCN5C(=O)[C@@H](NC(=O)OC)[C@@H](C)OC)[nH]4)cc3)cc2)[nH]1)[C@@H](C)OC` [Compound 289], the EC50 under setting [1] is below 1 nM. `COC(=O)N[C@H](C(=O)N1CCC[C@H]1c1ncc(-c2ccc(C#Cc3ccc4nc([C@@H]5CCCN5C(=O)[C@@H](NC(=O)OC)C5CCCC5)[nH]c4c3)cc2)[nH]1)C1CCCC1` [Compound 1025]: the EC50 under setting [1] was below 1 nM. With `COC(=O)N[C@H](C(=O)N1CCSC[C@H]1c1ncc(-c2ccc(C#Cc3ccc4nc([C@@H]5CCCN5C(=O)[C@@H](NC(=O)OC)C(C)C)[nH]c4c3)cc2)[nH]1)C(C)C` [Compound 1062], the EC50 under setting [1] is below 1 nM. With `COC(=O)N[C@H](C(=O)N1CCC[C@H]1c1ncc(-c2ccc(C#Cc3ccc(-c4cnc([C@@H]5CCCN5C(=O)[C@H](NC(=O)OC)c5ccccc5)[nH]4)cc3)cc2)[nH]1)[C@@H](C)OC` [Compound 1210], the EC50 under setting [2] is below 1 nM.
